Measurements published in patent US12187740B2, “Polymorphic forms of bictegravir potassium” (HONOUR LAB LIMITED, priority 2021, dated 2025).

Assay: Storage stability test of crystalline Form HN1 (PXRD, HPLC purity, Karl Fischer water content)
Type: physicochemical
Design: Water: unit not given here
Settings: for Purity: HPLC; for Water: Karl Fischer
Description: X-ray powder diffraction spectrum was measured on a BRUKER axs D8 advance X-ray powder diffractometer having a copper-Ka radiation. Approximately 1 gm of sample was gently flattered on a sample holder and scanned from 2 to 50 degrees two-theta, at 0.02 degrees two theta per step and a step time of 10.8 seconds. The sample was simply placed on the sample holder. The sample was rotated at 30 rpm at a voltage 40 KV and current […].
In another aspect of the present invention Bictegravir potassium crystalline Form HN1 is stable at 5±3° C. and 25±2° C./60±5% RH (Relative humidity) and has the following stability data:
The stability of samples was tested by PXRD, HPLC and water content was measured by Karl Fischer method.

[1] = storage 25 ± 2° C./RH 60 ± 5%, 1st month
[2] = storage 25 ± 2° C./RH 60 ± 5%, 3rd month
[3] = storage 25 ± 2° C./RH 60 ± 5%, 6th month
[4] = storage 25 ± 2° C./RH 60 ± 5%, Initial
[5] = at 5±3° C. and 25±2° C./60±5% RH

## O=C(NCc1c(F)cc(F)cc1F)c1cn2c(c([O-])c1=O)C(=O)N1[C@H]3CC[C@H](C3)O[C@@H]1C2.[K+] [Form HN1, Bictegravir potassium]
Storage 5 ± 3° C., 1st month
  Purity: 99.87
  Water: 2.8
  PXRD: Form HN1
Storage 5 ± 3° C., 3rd month
  Purity: 99.81
  Water: 2.8
  PXRD: Form HN1
Storage 5 ± 3° C., 6th month
  Purity: 99.81
  Water: 2.8
  PXRD: Form HN1
Storage 5 ± 3° C., Initial
  Purity: 99.88
  Water: 2.2
  PXRD: Form HN1
[1]
  Purity: 99.87
  Water: 2.8
  PXRD: Form HN1
[2]
  Purity: 99.80
  Water: 2.9
  PXRD: Form HN1
[3]
  Purity: 99.81
  Water: 2.8
  PXRD: Form HN1
[4]
  Purity: 99.88
  Water: 2.2
  PXRD: Form HN1
[5]
  change in PXRD pattern after storage: no change
  change in water content after storage: no change
  decrease in purity after storage: no significant decrease
  stability on storage (overall): physically and chemically stable
